Patent publication US9120791B2, “Indolizine compounds, a process for their preparation and pharmaceutical compositions containing them” (LES LABORATOIRES SERVIER, priority 2012, dated 2015)
Where a name gives a salt, the structure may show the parent alone. Read-outs that look alike come from different tables or passages of the source.

Columns and labels:
caspase 3 = experiment: Induction of caspase activity in vivo (DEVDase activity in tumour lysates, RS4;11 xenograft); design: species or system mice (SCID strain); settings: oral treatment, 16 hours after treatment, RS4;11 xenograft in SCID mice; for fold induction at 50 mg/kg / Activation factor (versus control), DEVDase activity in the tumours: 50 mg/kg
Experimental: The ability of the compounds of the invention to activate caspase 3 is evaluated in a xenograft model of RS4;11 leukaemia cells.
1×10^7 RS4;11 cells are grafted sub-cutaneously into immunosuppressed mice (SCID strain). 25 to 30 days after the graft, the animals are treated orally with the various compounds. Sixteen hours after treatment, the tumour masses are recovered and lysed, and the caspase 3 activity is measured in the tumour lysates.
This enzymatic measurement is carried out by assaying the appearance of a fluorigenic cleavage product (DEVDase activity, Promega). It is expressed in the form of an activation factor corresponding to the ratio between the two caspase activities:the activity for the treated mice divided by the activity for the control mice.

[1] = system: RS4;11 leukaemia tumour line; experiment: In vitro cytotoxicity (Microculture Tetrazolium Assay, 48 hours); assay type: cell-based; settings: RS4;11 cells, 48 hours exposure, MTT, concentration that inhibits cell viability by 50%, read-out: IC50 (nM) MTT RS4
Experimental: The cytotoxicity studies were carried out on the RS4;11 leukaemia tumour line.
The cells are distributed onto microplates and exposed to the test compounds for 48 hours.

Bcl-2 protein = Bcl-2 protein (Homo sapiens (Human), UniProt P10415); experiment: Inhibition of Bcl-2 by the fluorescence polarisation technique; assay type: binding; settings: fluorescence polarisation test; concentration that inhibits fluorescence polarisation by 50%; read-out: IC50 (nM) Bcl-2 FP
Bcl-2 protein, sequence (P10415 whole entry): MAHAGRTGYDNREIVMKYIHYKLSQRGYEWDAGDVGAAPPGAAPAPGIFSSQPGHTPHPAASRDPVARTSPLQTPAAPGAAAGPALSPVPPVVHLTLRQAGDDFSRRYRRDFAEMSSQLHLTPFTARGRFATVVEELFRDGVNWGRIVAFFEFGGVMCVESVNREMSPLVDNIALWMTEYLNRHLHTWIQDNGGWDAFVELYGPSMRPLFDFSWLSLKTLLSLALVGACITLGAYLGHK
Experimental: The fluorescence polarisation tests were carried out on microplates (384 wells). […] After incubation for 2 hours, the fluorescence polarisation is measured.

[2] = Mus musculus, read-out: Activation factor (versus control), DEVDase activity in the tumours

| SMILES | IC50 (Bcl-2 protein) [nM] | fold induction at 50 mg/kg (caspase 3; [2]) | IC50 ([1]; Homo sapiens) [nM] | fold induction at 100 mg/kg (caspase 3; Mus musculus, 100 mg/kg, read-out: Activation factor (versus control), DEVDase activity in the tumours) | Activation factor (versus control), DEVDase activity in the tumours (caspase 3) | IC50 [1] [nM] |
| --- | --- | --- | --- | --- | --- | --- |
| CN1CCc2cc(N(C(=O)c3cc(-c4cc5c(cc4C(=O)N4Cc6ccccc6C[C@H]4CN4CCOCC4)OCO5)n4c3CCCC4)c3ccc(O)cc3)ccc21 [Example 9, N-[4-(Hydroxy)phenyl]-N-(1-methyl-2,3-dihydro-1H-indol-5-yl)-3-{6-[((3S)-3-(4-morpholinylmethyl)-3,4-dihydro-2(1H)-isoquinolinyl)carbonyl]-1,3-benzodioxol-5-yl}-5,6,7,8-tetrahydro-1-indolizine carboxamide hydrochloride] | 13 | 20.6 | 16.1 | – | – | – |
| Cc1ccc(N(C(=O)c2cc(-c3cc4c(cc3C(=O)N3Cc5ccccc5C[C@H]3CN3CCOCC3)OCO4)n3c2CCCC3)c2ccc(O)cc2)cc1F [Example 4, N-(3-Fluoro-4-methylphenyl)-N-(4-hydroxyphenyl)-3-{6-[((3S)-3-(4-morpholinylmethyl)-3,4-dihydro-2(1H)-isoquinolinyl)carbonyl]-1,3-benzodioxol-5-yl}-5,6,7,8-tetrahydro-1-indolizine carboxamide hydrochloride] | 19 | 29.2 | 27.1 | – | – | – |
| Cc1ccc(N(C(=O)c2cc(-c3cc4c(cc3C(=O)N3Cc5ccccc5C[C@H]3CN3CCOCC3)OCO4)n3c2CCCC3)c2ccc(O)cc2)cc1 [Example 2, N-(4-Hydroxyphenyl)-N-(4-methylphenyl)-3-{6-[((3S)-3-(4-morpholinylmethyl)-3,4-dihydro-2(1H)-isoquinolinyl)carbonyl]-1,3-benzodioxol-5-yl}-5,6,7,8-tetrahydro-1-indolizine carboxamide hydrochloride] | 20 | – | 49.8 | 27.8 | – | – |
| Cl.O=C(c1cc(-c2cc3c(cc2C(=O)N2Cc4ccccc4C[C@H]2CN2CCOCC2)OCO3)n2c1CCCC2)N(c1ccc(O)cc1)c1ccc(Cl)cc1 [Example 3, N-(4-Chlorophenyl)-N-(4-hydroxyphenyl)-3-{6-[((3S)-3-(4-morpholinylmethyl)-3,4-dihydro-2(1H)-isquinolinyl)carbonyl]-1,3-benzdioxol-5-yl}-5,6,7,8-tetrahydro-1-indolizine carboxamide hydrochloride] | – | – | – | – | 5.7 (50 mg/kg) | 44.7 |
| Cn1ccc2cc(N(C(=O)c3cc(-c4cc(Cl)ccc4C(=O)N4Cc5ccccc5C[C@H]4CN4CCOCC4)n4c3CCCC4)c3ccc(O)cc3)ccc21 [Example 22, 3-{5-Chloro-2-[((3S)-3-(4-morpholinylmethyl)-3,4-dihydro-2(1H)-isoquinolinyl)carbonyl]phenyl}-N-(4-hydroxyphenyl)-N-(1-methyl-1H-indol-5-yl)-5,6,7,8-tetrahydro-1-indolizine carboxamide hydrochloride] | 27 | 11.3 | 19.1 | – | – | – |
| O=C(c1cc(-c2cc3c(cc2C(=O)N2Cc4ccccc4C[C@H]2CN2CCOCC2)OCO3)n2c1CCCC2)N(c1ccc(O)cc1)c1ccc2c(c1)CCN2 [Example 8, N-(2,3-Dihydro-1H-indol-5-yl)-N-[4-(hydroxy)phenyl]-3-{6-[((3S)-3-(4-morpholinylmethyl)-3,4-dihydro-2(1H)-isoquinolinyl)carbonyl]-1,3-benzodioxol-5-yl}-5,6,7,8-tetrahydro-1-indolizine carboxamide bis(hydrochloride)] | 15 | 9.8 | 25.6 | – | – | – |
| Cl.O=C(c1cc(-c2cc3c(cc2C(=O)N2Cc4ccccc4C[C@H]2CN2CCOCC2)OCO3)n2ccccc12)N(c1ccccc1)c1ccc(O)cc1 [Example 58, N-(4-Hydroxyphenyl)-3-{6-[((3S)-3-(4-morpholinylmethyl)-3,4-dihydro-2(1H)-isoquinolinyl)carbonyl]-1,3benzodioxol-5-yl}-N-phenyl-indolizine carboxamide hydrochloride] | – | – | – | – | 23.3 (50 mg/kg) | 40.1 |
| CN1CCc2cc(N(C(=O)c3cc(-c4cc(Cl)ccc4C(=O)N4Cc5ccccc5C[C@H]4CN4CCOCC4)n4c3CCCC4)c3ccc(O)cc3)ccc21 [Example 23, 3-{5-Chloro-2-[((3S)-3-(4-morpholinylmethyl)-3,4-dihydro-2(1H)-isoquinolinyl)carbonyl]phenyl}-N-(4-hydroxyphenyl)-N-(1-methyl-2,3-dihydro-1H-indol-5-yl)-5,6,7,8-tetrahydro-1-indolizine carboxamide bis(hydrochloride)] | 14 | 22.7 | 23 | – | – | – |

Further lines, with some results ahead:

| IC50 (Bcl-2 protein) [nM] | SMILES | fold induction at 50 mg/kg (caspase 3; [2]) | IC50 ([1]; Homo sapiens) [nM] | fold induction at 100 mg/kg (caspase 3; Mus musculus, 100 mg/kg, read-out: Activation factor (versus control), DEVDase activity in the tumours) | Activation factor (versus control), DEVDase activity in the tumours (caspase 3) | IC50 [1] [nM] |
| --- | --- | --- | --- | --- | --- | --- |
| 24 | Cn1ccc2cc(N(C(=O)c3cc(-c4cc(Cl)ccc4C(=O)N4Cc5ccccc5C[C@H]4CN4CCOCC4)n4ccccc34)c3ccc(O)cc3)ccc21 [Example 67, 3-{5-Chloro-2-[((3S)-3-(4-morpholinylmethyl)-3,4-dihydro-2(1H)-isoquinolinyl)carbonyl]phenyl}-N-(4-hydroxyphenyl)-N-(1-methyl-1H-indol-5-yl)-1-indolizine carboxamide hydrochloride] | 18.9 | 17.7 | – | – | – |
| 16 | CN1CCc2cc(N(C(=O)c3cc(-c4cc(Cl)ccc4C(=O)N4Cc5ccccc5C[C@H]4CN4CCOCC4)n4ccccc34)c3ccc(O)cc3)ccc21 [Example 66, 3-{5-Chloro-2-[((3S)-3-(4-morpholinylmethyl)-3,4-dihydro-2(1H)-isoquinolinyl)carbonyl]phenyl}-N-(4-hydroxyphenyl)-N-(1-methyl-2,3-dihydro-1H-indol-5-yl)-1-indolizine carboxamide bis(hydrochloride)] | 24.7 | 21.7 | – | – | – |
| 20 | Cc1ccc(N(C(=O)c2cc(-c3cc(Cl)ccc3C(=O)N3Cc4ccccc4C[C@H]3CN3CCOCC3)n3c2CCCC3)c2ccc(O)cc2)cc1Cl [Example 97, N-(3-Chloro-4-methylphenyl)-3-(5-chloro-2-{[(3S)-3-(morpholin-4-ylmethyl)-3,4-dihydroisoquinolin-2(1H)-yl]carbonyl}phenyl)-N-(4-hydroxyphenyl)-5,6,7,8-tetrahydroindolizine-1-carboxamide hydrochloride] | – | 45.4 | – | – | – |
| 17 | CN1CCCc2cc(N(C(=O)c3cc(-c4cc(Cl)ccc4C(=O)N4Cc5ccccc5C[C@H]4CN4CCOCC4)n4c3CCCC4)c3ccc(O)cc3)ccc21 [Example 26, 3-{5-Chloro-2-[((3S)-3-(4-morpholinylmethyl)-3,4-dihydro-2(1H)-isoquinolinyl)carbonyl]phenyl}-N-(4-hydroxyphenyl)-N-(1-methyl-1,2,3,4-tetrahydro-6-quinolinyl)-5,6,7,8-tetrahydro-1-indolizine carboxamide hydrochloride] | – | 40 | – | – | – |
| 13 | Cn1ccc2cc(N(C(=O)c3cc(-c4cc5c(cc4C(=O)N4Cc6ccccc6C[C@H]4CN4CCOCC4)OCO5)n4ccccc34)c3ccc(O)cc3)ccc21 [Example 59, N-(4-Hydroxyphenyl)-N-(1-methyl-1H-indol-5-yl)-3-{6-[((3S)-3-(4-morpholinylmethyl)-3,4-dihydro-2(1H)-isoquinolinyl)carbonyl]-1,3-benzodioxol-5-yl}-1-indolizine carboxamide hydrochloride] | 23 | 8.13 | – | – | – |
| 37 | N#Cc1ccccc1N(C(=O)c1cc(-c2cc(Cl)ccc2C(=O)N2Cc3ccccc3C[C@H]2CN2CCOCC2)n2c1CCCC2)c1ccc(O)cc1 [Example 134, 3-(5-Chloro-2-{[(3S)-3-(morpholin-4-ylmethyl)-3,4-dihydroisoquinolin-2(1H)-yl]carbonyl}phenyl)-N-(2-cyanophenyl)-N-(4-hydroxyphenyl)-5,6,7,8-tetrahydroindolizine-1-carboxamide hydrochloride] | – | 305 | – | – | – |
| 5 | Cn1ncc2cc(N(C(=O)c3cc(-c4cc(Cl)ccc4C(=O)N4Cc5ccccc5C[C@H]4CN4CCOCC4)n4c3COCC4)c3ccc(O)cc3)ccc21 [Example 101, 6-(5-Chloro-2-{[(3S)-3-(morpholin-4-ylmethyl)-3,4-dihydroisoquinolin-2(1H)-yl]carbonyl}phenyl)-N-(4-hydroxyphenyl)-N-(1-methyl-1H-indazol-5-yl)-3,4-dihydro-1H-pyrrolo[2,1-c][1,4]oxazine-8-carboxamide hydrochloride] | – | 22.1 | – | – | – |
